What is called IC50 is the concentration that gives 50% inhibition.

The values that follow come from patent US20250230171A1 (MOMA Therapeutics, Inc., priority 2023, published 2025).

biotinylated Avi-POLθ[2-894], sequence (O75417 2-894): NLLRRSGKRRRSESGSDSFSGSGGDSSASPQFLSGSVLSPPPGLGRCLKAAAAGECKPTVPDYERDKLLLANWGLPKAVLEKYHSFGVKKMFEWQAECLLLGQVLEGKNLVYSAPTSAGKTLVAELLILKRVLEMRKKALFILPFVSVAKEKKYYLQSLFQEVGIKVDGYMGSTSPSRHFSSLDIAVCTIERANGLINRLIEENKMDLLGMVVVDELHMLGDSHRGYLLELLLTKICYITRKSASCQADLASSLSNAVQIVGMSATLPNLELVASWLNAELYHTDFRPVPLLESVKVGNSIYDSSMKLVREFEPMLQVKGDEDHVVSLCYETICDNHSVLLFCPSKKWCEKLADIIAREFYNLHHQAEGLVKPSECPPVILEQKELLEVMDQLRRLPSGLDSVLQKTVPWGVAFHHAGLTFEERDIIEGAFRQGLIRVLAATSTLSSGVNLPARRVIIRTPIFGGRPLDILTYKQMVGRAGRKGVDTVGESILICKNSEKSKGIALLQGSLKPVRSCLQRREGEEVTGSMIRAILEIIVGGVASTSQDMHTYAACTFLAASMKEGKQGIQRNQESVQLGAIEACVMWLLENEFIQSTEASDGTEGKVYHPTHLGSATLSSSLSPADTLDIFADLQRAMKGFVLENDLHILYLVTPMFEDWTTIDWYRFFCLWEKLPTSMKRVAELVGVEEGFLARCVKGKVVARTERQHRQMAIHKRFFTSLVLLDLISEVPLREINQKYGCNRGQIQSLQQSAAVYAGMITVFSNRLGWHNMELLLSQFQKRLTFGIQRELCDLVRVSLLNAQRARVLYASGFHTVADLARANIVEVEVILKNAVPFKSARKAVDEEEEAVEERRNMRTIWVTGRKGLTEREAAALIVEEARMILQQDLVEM

One experiment has as its target biotinylated Avi-POLθ[2-894] (Homo sapiens (Human), UniProt O75417). The experiment can be described thus: POLθ ATPase assay (ADP-Glo). To be noted: POLθ ATPase, ADP-Glo; n=2; read-out: Biochemical ATPase ADPGlo IC50. On the procedure: In some embodiments, the ATPase assay a compound of the present disclosure is combined with biotinylated Avi-POLθ[2-894], a 50 nucleotide poly-thymine repeat single-stranded DNA, and ATP in buffer. In some embodiments, the mixture is incubated and ADP-Glo Reagent added, followed by a subsequent incubation. In some embodiments, a Kinase Detection Reagent may be added, followed by a third incubation. In some embodiments, the activity is measured via luminescence signal (e.g., measured with the EnVision multimode plate reader). POLθ-mediated ATP hydrolysis was measured using the ADP-Glo Kinase Assay (Promega Corporation, Madison, WI). Reactions were performed in white 384-well small-volume microplates (Greiner Bio-One, Frickenhausen, Germany) using a total volume of 15 μL. The ATPase reaction consisted of 1 nM biotinylated Avi-POLθ[2-894], 5 nM of a 50 nucleotide poly-thymine repeat single-stranded DNA (PolyT(50) ssDNA), and 100 μM ATP in 5 μL of assay buffer (50 mM Tris, pH 7.5, 80 mM KCl, 10 MgCl2, 1 mM DTT, 5% glycerol, 0.01% BSA, 0.01% Tween-20). Inhibition of POLΘATPase activity was determined by preparing 11-point serial dilutions of the test compounds in 100% DMSO, then transferring 30 nL of the compounds into the ATPase reaction using an Echo acoustic liquid handler (Beckman Coulter, Brea, CA). DMSO-treated wells containing either all of the reaction components (1 nM biotinylated Avi-POLθ[2-894], 5 nM PolyT(50) ssDNA, 100 μM ATP) or with assay buffer substituted for the biotinylated Avi-POLθ[2-894](0 nM biotinylated Avi-POLθ[2-894], 5 nM PolyT(50) ssDNA, 100 μM ATP) were used to define the maximum and minimum response in the assay. Following a one-hour incubation at ambient temperature, 5 μL of ADP-Glo Reagent was added to the ATPase reaction, and this mixture was allowed to incubate at ambient temperature for an additional hour. Lastly, 5 μL of Kinase Detection Reagent was added, followed by a third one-hour incubation at ambient temperature. […] Luminescence signal was measured using the EnVision multimode plate reader (Perkin Elmer. Waltham. MA). […] Non-linear regression analysis using the four-parameter logistic equation was conducted on the percent activity values of the compound dose-responses, yielding the AC50 value for each compound. Genedata Screener (Genedata. Basel, Switzerland) was used for the data analysis.
`COc1cnc(Cl)cc1-c1cc(C)ncc1C(=O)Nc1nc2c(s1)CN(C(=O)c1ccc(C(F)(F)F)nc1OC)C2C` (single isomer, unassigned) [Example 1037, (R or S)-2′-chloro-5′-methoxy-N-(5-(2-methoxy-6-(trifluoromethyl)nicotinoyl)-4-methyl-5,6-dihydro-4H-pyrrolo[3,4-d]thiazol-2-y])-6-methyl-[4,4′-bipyridine]-3-carboxamide]: the IC50 lay in the range of 15 to 50 nM.
As to `COc1cnc(Cl)cc1-c1cc(C)ncc1C(=O)Nc1nc2c(s1)C(C)N(C(=O)c1ccc(C(F)(F)F)nc1OC)C2` (single isomer, unassigned) [Example 1047, (S or R)-2′-chloro-5′-methoxy-N-(5-(2-methoxy-6-(trifluoromethyl)nicotinoyl)-6-methyl-5,6-dihydro-4H-pyrrolo[3,4-d]thiazol-2-yl)-6-methyl-[4,4′-bipyridine]-3-carboxamide], the IC50 was 150 to 900 nM.

Still in this experiment, the particulars now being: n=2; read-out: Biochemical ATPase ADPGlo IC50.
Regarding `COc1cnc(Cl)cc1-c1cc(C)ncc1C(=O)Nc1nc2c(s1)CN(C(=O)c1cn(C)nc1C)C2` (racemic), the IC50 was 1 to 15 nM.
On to `COc1ccccc1-c1cc(C)ncc1C(=O)Nc1nc2c(s1)CN(C(=O)C1(c3ccccn3)CC1)C2` (racemic), for which the IC50 lay in the range of 50 to 150 nM.
For `COc1ccccc1-c1cc(C)ncc1C(=O)Nc1nc2c(s1)CN(C(=O)C1CCCOC1)C2` (racemic), the IC50 lay within 150 to 900 nM.
As for `COCC1(C(=O)N2Cc3nc(NC(=O)c4cnc(C)cc4-c4ccccc4OC)sc3C2)CCC1` (racemic), the half-inhibitory concentration (IC50) lay within 150 to 900 nM.
Turning to `COc1cnc(Cl)cc1-c1cc(C)ncc1C(=O)Nc1nc2c(s1)CN(C(=O)C1CCC(OC)C1)C2` (racemic) [Example 101, (Racemic)-2′-chloro-5′-methoxy-N-(5-(3-methoxycyclopentane-1-carbonyl)-5,6-dihydro-4H-pyrrolo[3,4-d]thiazol-2-yl)-6-methyl-[4,4′-bipyridine]-3-carboxamide], the IC50 was in the range of 1 to 15 nM.
Take `COc1cnc(Cl)cc1-c1cc(C)ncc1C(=O)Nc1nc2c(s1)CN(C(=O)C1CC(OC)(C(F)(F)F)C1)C2` (racemic) [Example 103, (Racemic)-2′-chloro-5′-methoxy-N-(5-(3-methoxy-3-(trifluoromethyl)cyclobutane-1-carbonyl)-5,6-dihydro-4H-pyrrolo[3,4-d]thiazol-2-yl)-6-methyl-[4,4′-bipyridine]-3-carboxamide]: the IC50 lay in the range of 15 to 50 nM.
Same read-out and setting: the result for `COc1cnc(Cl)cc1-c1cc(C)ncc1C(=O)Nc1nc2c(s1)CC(N1CCC(O)CC1)CC2` (racemic) [Example 109, (Racemic)-2′-chloro-N-(6-(4-hydroxypiperidin-1-yl)-4,5,6,7-tetrahydrobenzo[d]thiazol-2-yl)-5′-methoxy-6-methyl-[4,4′-bipyridine]-3-carboxamide] reads 150 to 900 nM; that for `COc1cnc(Cl)cc1-c1cc(C)ncc1C(=O)Nc1nc2c(s1)CC(N1CCCCC1)CC2` (racemic) [Example 110], not below 900 nM.
On to `COc1cnc(Cl)cc1-c1cc(C)ncc1C(=O)Nc1nc2c(s1)CC(NC1CCC1)CC2` (racemic) [Example 134], for which the 50% inhibitory concentration (IC50) is 150 to 900 nM.
As to `COc1cnc(Cl)cc1-c1cc(C)ncc1C(=O)Nc1nc2c(s1)CN(C(=O)c1ccnn1C(F)F)C2` (racemic) [Example 137], the 50% inhibitory concentration (IC50) lay within 1 to 15 nM.
`COc1cnc(Cl)cc1-c1cc(C)ncc1C(=O)Nc1nc2c(s1)C[C@H](NC(=O)[C@H]1C[C@@H](O)C1)CC2` (racemic) [Example 144]: the IC50 fell in the range of 150 to 900 nM.
With `COc1ccc(C#N)cc1-c1cc(C)ncc1C(=O)Nc1nc2c(s1)CN(C1CC1)C2` (racemic) [Example 165], the IC50 fell in the range of 50 to 150 nM.
`COc1ccc(C#N)cc1-c1cc(C)ncc1C(=O)Nc1nc2c(s1)CN(C(=O)c1ccncc1)CC2` (racemic) [Example 213]: the concentration for half-maximal inhibition (IC50) is 150 to 900 nM.
In the case of `COc1ccc(C#N)cc1-c1cc(C)ncc1C(=O)Nc1nc2c(s1)CN(S(=O)(=O)C1CCCOC1)C2` (racemic) [Example 233], the IC50 was in the range of 15 to 50 nM.
On to `COc1ccc(C#N)cc1-c1cc(C)ncc1C(=O)Nc1nc2c(s1)CN(C(=O)C1COC1)CC2` (single isomer, unassigned), for which the IC50 lay within 150 to 900 nM.
For `COc1ccc(C#N)cc1-c1cc(C)ncc1C(=O)Nc1nc2c(s1)CN(C(=O)C1CCCC1)CC2` (single isomer, unassigned), the IC50 fell in the range of 150 to 900 nM.
Turning to `COc1cnc(Cl)cc1-c1cc(C)ncc1C(=O)Nc1nc2c(s1)C[C@H](C(=O)NC1CCC1)CC2` (single isomer, unassigned) [Example 27, (R or S)-2-(2′-chloro-5′-methoxy-6-methyl-[4,4′-bipyridine]-3-carboxamido)-N-cyclobutyl-4,5,6,7-tetrahydrobenzo[d]thiazole-6-carboxamide], the IC50 lay within 15 to 50 nM.
For `COc1cnc(Cl)cc1-c1cc(C)ncc1C(=O)Nc1nc2c(s1)C[C@@H](C(=O)NC1CCC1)CC2` (single isomer, unassigned) [Example 29, (S or R)-2-(2′-chloro-5′-methoxy-6-methyl-[4,4′-bipyridine]-3-carboxamido)-N-cyclobutyl-4,5,6,7-tetrahydrobenzo[d]thiazole-6-carboxamide], the IC50 fell in the range of 150 to 900 nM.
With `COc1cnc(Cl)cc1-c1cc(C)ncc1C(=O)Nc1nc2c(s1)CC(C(=O)NC1CC1)CC2` (single isomer, unassigned) [Example 154], the IC50 lay within 150 to 900 nM.
`COc1ccc(C#N)cc1-c1cc(C)ncc1C(=O)Nc1nc2c(s1)CN(C(=O)C1CC1(F)F)CC2` (single isomer, unassigned) [Example 210]: the half-maximal inhibitory concentration (IC50) is 150 to 900 nM.
With `COc1ccc(C#N)cc1-c1cc(C)ncc1C(=O)Nc1nc2c(s1)CN(C(=O)C1CCCCO1)CC2` (single isomer, unassigned) [Example 215], the 50% inhibitory concentration (IC50) is not below 900 nM.
Consider `COc1cn2cncc2cc1-c1cc(C)ncc1C(=O)Nc1nc2c(s1)CN(C(=O)[C@H]1C[C@H](OC(F)(F)F)C1)C2` [Example 22, 4-(6-methoxyimidazo[1,5-a]pyridin-7-yl)-6-methyl-N-(5-((1r,3r)-3-(trifluoromethoxy)cyclobutane-1-carbonyl)-5,6-dihydro-4H-pyrrolo[3,4-d]thiazol-2-yl)nicotinamide], for which the IC50 lay in the range of 15 to 50 nM.
On the same count and under the same terms, the result for `COc1cnc(Cl)cc1-c1cc(C)ncc1C(=O)Nc1nc2c(s1)CN(C(=O)c1nccn1C)C2` [Example 23, 2′-chloro-5′-methoxy-6-methyl-N-(5-(1-methyl-1H-imidazole-2-carbonyl)-5,6-dihydro-4H-pyrrolo[3,4-d]thiazol-2-yl)-[4,4′-bipyridine]-3-carboxamide] reads 15 to 50 nM; that for `COc1cnc(Cl)cc1-c1cc(C)ncc1C(=O)Nc1nc2c(s1)CN(C(=O)C1CN(CC(F)F)C1)C2` [Example 24, 2′-chloro-N-(5-(1-(2,2-difluoroethyl)azetidine-3-carbonyl)-5,6-dihydro-4H-pyrrolo[3,4-d]thiazol-2-yl)-5′-methoxy-6-methyl-[4,4′-bipyridine]-3-carboxamide], 15 to 50 nM; that for `COc1cnc(Cl)cc1-c1cc(C)ncc1C(=O)Nc1nc2c(s1)CN(C(=O)c1cncn1C)C2` [Example 30, 2′-chloro-5′-methoxy-6-methyl-N-(5-(1-methyl-1H-imidazole-5-carbonyl)-5,6-dihydro-4H-pyrrolo[3,4-d]thiazol-2-yl)-[4,4′-bipyridine]-3-carboxamide], 15 to 50 nM.
